Experiment [1] addresses T1, RORγ LBD-GST tagged (Homo sapiens, UniProt P51449).
T1 construct: RORγ LBD-GST tagged (Cat No. RORC-114H, Creative Biomart); purchased Creative Biomart RORC-114H
T1 sequence (P51449 269-508 limits assumed): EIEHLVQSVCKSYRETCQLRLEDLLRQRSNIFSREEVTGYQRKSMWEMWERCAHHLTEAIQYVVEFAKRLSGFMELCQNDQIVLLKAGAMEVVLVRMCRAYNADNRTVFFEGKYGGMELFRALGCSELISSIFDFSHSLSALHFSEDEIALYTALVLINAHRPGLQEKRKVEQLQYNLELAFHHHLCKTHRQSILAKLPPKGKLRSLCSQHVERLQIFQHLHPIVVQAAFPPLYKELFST
Briefly: LanthaScreen TR-FRET RORγ coactivator assay. The class given is biochemical. As to conditions: Fluorescein-D22 coactivator peptide, 1 hour room temperature. The essentials:
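GST-tagged RORγ LBD (25 ng/reaction) was incubated in coregulator buffer D with 5 mM DTT and compound (top 3 μM, 7-fold steps, 7 doses), then with a mix containing 0.6 μM fluorescein-D22 peptide and 8 nM Tb anti-GST antibody. After 1 h at room temperature in the dark, 520/495 nm TR-FRET was read. IC50 came from log concentration versus percent inhibition.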
A general note: TR-FRET usually uses a lanthanide donor and a delayed reading to cut background.

Experiment [2] deals with IL-17 production, human PBMC cells. The experiment is described as follows: IL-17 production assay using human PBMC. In kind it is cell-based. As to conditions: human PBMC stimulated by cytostim for 3 days, IL-17 ELISA of supernatant. An excerpt: Test Example 2. IL-17 Production Assay Using Human PBMC
• 1. Human PBMC cells (Cat No. 70025.1, Zenbio) • 2. Lymphocyte medium (Cat No. LYMPH-1, Zenbio) • 3. TexMACS (Cat No. 130-097-196, Miltenyi) • 4. Cytostim-human (Cat No. 1130-092-173, Miltenyi) • 5. Human IL-17 ELISA (Cat No. D1700, R&D systems) • 6. Tecan Infinite M1000 plate reader (Tecan)
Experimental Procedure for IL-17 Production Assay
Cryopreserved peripheral blood human mononuclear cells (PBMCs) were rapidly thawed in warmed Lymphocyte media, and centrifuged cell suspension at 1000 rpm for 10 minutes. The supernatant was removed, and the cell pellets were gently resuspended in TexMACS media.
Human PBMC cells in TexMACS media were plated at 1×10^5 each well in triplicate. The test compounds at various concentrations or vehicle control (<0.5% DMSO) were added into cell culture. The cells were stimulated by cytostim (10 μL/mL) for 3 days in a humidified, 5% CO2 incubator at 37° C.
After incubation, the cell culture supernatant was harvested, and then removed particulates by centrifugation. Human IL-17 in the supernatant was measured using human IL-17 ELISA kit according to the manufacturer's protocol. IC50 values were determined using GraphPad Prism by plotting the compounds concentration versus percent inhibition.
For orientation: ELISA stands for enzyme-linked immunosorbent assay.

The structures appear in SMILES notation.

From patent publication US12187684B2, “Benzimidazole derivatives as modulators of retinoid-related orphan receptor gamma (RORγ) and pharmaceutical use thereof” (Jiangsu Hengrui Medicine Co., Ltd., priority 2018, dated 2025) come the findings set out here.

In general, IC50 refers to the point on the concentration scale where inhibition reaches its midpoint. Read a high IC50 as a need for much substance.

For the compound `O=S(=O)(CC1CC1)c1ccc(C(CO)c2nc3c(Cl)c(-c4ccccc4OC(F)(F)F)c(Cl)cc3[nH]2)c(F)c1` (centres unmarked) [Example 81, 2-(4-((cyclopropylmethyl)sulfonyl)-2-fluorophenyl)-2-(4,6-dichloro-5-(2-(trifluoromethoxy)phenyl)-1H-benzo[d]imidazol-2-yl)ethanol], the IC50 in experiment [1] turned out to be 0.035 µM; in experiment [2] (Homo sapiens, PBMC, 72 h), 0.003 µM.
For `CCS(=O)(=O)c1ccc(C(CO)c2nc3c(Cl)c(-c4ccccc4OC(F)(F)F)c(Cl)cc3[nH]2)c(F)c1` (centres unmarked) [Example 77, 2-(4,6-dichloro-5-(2-(trifluoromethoxy)phenyl)-1H-benzo[d]imidazol-2-yl)-2-(4-(ethylsulfonyl)-2-fluorophenyl)ethanol], in that order: 0.021 µM and 0.017 µM.
In the case of `CCS(=O)(=O)c1ccc(C(CO)c2nc3c(Cl)c(-c4ccccc4OCOC)c(Cl)cc3[nH]2)cc1` (centres unmarked) [Example 14, 2-(4,6-dichloro-5-(2-methoxymethoxyphenyl)-1H-benzo[d]imidazol-2-yl)-2-(4-(ethylsulfonyl)phenyl)ethanol], the IC50 in experiment [1] amounted to 0.086 µM; in experiment [2] (Homo sapiens, PBMC, 72 h) it was 0.022 µM.
Taken in the same sequence, the figures for `CCS(=O)(=O)c1ccc(Cc2nc3c(Cl)c(N4CCC(F)(F)CC4)c(Cl)cc3[nH]2)cc1` [Example 125, 4,6-dichloro-5-(4,4-difluoropiperidin-1-yl)-2-(4-(ethylsulfonyl)benzyl)-1H-benzo[d]imidazole] were 0.059 µM and 0.047 µM.
Taken in the same sequence, the figures for `O=S(=O)(CC1CC1)c1ccc(Cc2nc3c(Cl)c(-c4ccccc4C(F)(F)F)c(Cl)cc3[nH]2)cc1` [Example 69, 4,6-dichloro-2-(4-((cyclopropylmethyl)sulfonyl)benzyl)-5-(2-(trifluoromethyl)phenyl)-1H-benzo[d]imidazole] were 0.007 µM and 0.056 µM.
For `CCS(=O)(=O)c1ccc(C(CO)c2nc3c(Cl)c(-c4ccccc4OCC(F)(F)F)c(Cl)cc3[nH]2)cc1` (centres unmarked) [Example 32, 2-(4,6-dichloro-5-(2-(2,2,2-trifluoroethoxy)phenyl)-1H-benzo[d]imidazol-2-yl)-2-(4-(ethylsulfonyl)phenyl)ethanol], in that order: 0.052 µM and 0.007 µM.
Regarding `O=S(=O)(CC1CC1)c1ccc(C(CCO)c2nc3cc(Cl)c(N4CCC(F)(F)CC4)c(Cl)c3[nH]2)cc1` (single isomer, unassigned) [the longer retention time of 160 and 161, 3-(4-((cyclopropylmethyl)sulfonyl)phenyl)-3-(5,7-dichloro-6-(4,4-difluoropiperidin-1-yl)-1H-benzo[d]imidazol-2-yl)propan-1-ol], the IC50 in experiment [1] stood at 0.003 µM; in experiment [2], 0.004 µM.
For `CCS(=O)(=O)c1ccc(Cc2nc3c(Cl)c(-c4ccccc4C(F)(F)F)c(Cl)cc3[nH]2)cc1` [Example 3, 4,6-dichloro-2-(4-(ethylsulfonyl)benzyl)-5-(2-(trifluoromethyl)phenyl)-1H-benzo[d]imidazole], the IC50 in experiment [1] stood at 0.373 µM; in experiment [2] (Homo sapiens, PBMC, 72 h), 0.052 µM.
For `CCS(=O)(=O)c1ccc(C(CCO)c2nc3c(Cl)c(N4CCC(F)(F)CC4)c(Cl)cc3[nH]2)cc1` (centres unmarked) [Example 145, 3-(4,6-dichloro-5-(4,4-difluoropiperidin-1-yl)-1H-benzo[d]imidazol-2-yl)-3-(4-(ethylsulfonyl)phenyl)propan-1-ol], in that order: 0.068 µM and 0.01 µM.
For `NCC(c1ccc(S(=O)(=O)CC2CC2)cc1)c1nc2ccc(-c3ccccc3OC(F)F)c(Cl)c2[nH]1` (centres unmarked) [Example 128, 2-(7-chloro-6-(2-(difluoromethoxy)phenyl)-1H-benzo[d]imidazol-2-yl)-2-(4-((cyclopropylmethyl)sulfonyl)phenyl)ethanamine], in that order: 0.006 µM and 0.091 µM.
Taken in the same sequence, the figures for `CCS(=O)(=O)c1ccc(C(CO)c2nc3c(Cl)c(-c4ccccc4OC(F)F)c(Cl)cc3[nH]2)c(F)c1` (centres unmarked) [Example 84, 2-(4,6-dichloro-5-(2-(difluoromethoxy)phenyl)-1H-benzo[d]imidazol-2-yl)-2-(4-(ethylsulfonyl)-2-fluorophenyl)ethanol] were 0.019 µM and 0.013 µM.
Regarding `CCOc1ccccc1-c1c(Cl)cc2nc(Cc3ccc(S(=O)(=O)CC4CC4)cc3)[nH]c2c1Cl` [Example 136, 5,7-dichloro-2-(4-((cyclopropylmethyl)sulfonyl)benzyl)-6-(2-ethoxyphenyl)-1H-benzo[d]imidazole], the IC50 in experiment [1] turned out to be 0.005 µM; in experiment [2] (Homo sapiens, PBMC, 72 h), 0.014 µM.
For `O=S(=O)(CC1CC1)c1ccc(Cc2nc3c(Cl)c(-c4ccccc4OC(F)(F)F)c(Cl)cc3[nH]2)cc1` [Example 66, 4,6-dichloro-2-(4-((cyclopropylmethyl)sulfonyl)benzyl)-5-(2-(trifluoromethoxy)phenyl)-1H-benzo[d]imidazole], in that order: 0.002 µM and 0.01 µM.
For `O=S(=O)(CC1CC1)c1ccc(C(CCO)c2nc3cc(Cl)c(-c4ccccc4OC(F)F)cc3[nH]2)cc1` (centres unmarked) [Example 142, 3-(5-chloro-6-(2-(difluoromethoxy)phenyl)-1H-benzo[d]imidazol-2-yl)-3-(4-((cyclopropylmethyl)sulfonyl)phenyl)propan-1-ol], in that order: 0.013 µM and 0.028 µM.
Take `CC(C)Oc1ccccc1-c1cc2nc(C(CCO)c3ccc(S(=O)(=O)CC4CC4)cc3)[nH]c2cc1Cl` (single isomer, unassigned) [the longer retention time of 150 and 151, 3-(6-chloro-5-(2-isopropoxyphenyl)-1H-benzo[d]imidazol-2-yl)-3-(4-((cyclopropylmethyl)sulfonyl)phenyl)propan-1-ol]: the IC50 in experiment [1] was found to be 0.026 µM; in experiment [2], 0.031 µM.
On to `CCS(=O)(=O)c1ccc(C(O)c2nc3c(Cl)c(-c4ccccc4OC)c(Cl)cc3[nH]2)cc1` (centres unmarked) [Example 7, (4,6-dichloro-5-(2-methoxyphenyl)-1H-benzo[d]imidazol-2-yl)(4-(ethylsulfonyl)phenyl)methanol], for which the IC50 came to 0.086 µM in experiment [1] and 0.223 µM in experiment [2] (Homo sapiens, PBMC, 72 h).
Taken in the same sequence, the figures for `CCS(=O)(=O)c1ccc(C(CO)c2nc3c(Cl)c(-c4ccccc4OC(F)(F)F)c(Cl)cc3[nH]2)cc1` (centres unmarked) [Example 4, 2-(4,6-dichloro-5-(2-(trifluoromethoxy)phenyl)-1H-benzo[d]imidazol-2-yl)-2-(4-(ethylsulfonyl)phenyl)ethanol] were 0.16 µM and 0.053 µM.
For `CC(C)Oc1ccccc1-c1cc2nc(C(CO)c3ccc(S(=O)(=O)CC4CC4)cc3)[nH]c2cc1Cl` (centres unmarked) [Example 124, 2-(6-chloro-5-(2-isopropoxyphenyl)-1H-benzo[d]imidazol-2-yl)-2-(4-((cyclopropylmethyl)sulfonyl)phenyl)ethanol], in that order: 0.205 µM and 0.032 µM.
Taken in the same sequence, the figures for `O=S(=O)(CC1CC1)c1ccc(C(CCO)c2nc3cc(Cl)c(-c4ccccc4OC(F)F)c(Cl)c3[nH]2)cc1` (centres unmarked) [Example 159, 3-(4-((cyclopropylmethyl)sulfonyl)phenyl)-3-(5,7-dichloro-6-(2-(difluoromethoxy)phenyl)-1H-benzo[d]imidazol-2-yl)propan-1-ol] were 0.005 µM and 0.01 µM.
`CCS(=O)(=O)c1ccc(/C(=N\O)c2nc3c(Cl)c(-c4ccccc4OC(F)F)c(Cl)cc3[nH]2)cc1` [Example 38, (E,Z)-(4,6-dichloro-5-(2-(difluoromethoxy)phenyl)-1H-benzo[d]imidazol-2-yl)(4-(ethylsulfonyl)phenyl)methanone oxime]: the IC50 in experiment [1] was determined as 0.147 µM; in experiment [2] (Homo sapiens, PBMC, 72 h), 0.873 µM.
For `O=S(=O)(CC1CC1)c1ccc(C(CCN2CCOCC2)c2nc3cc(Cl)c(N4CCC(F)(F)CC4)c(Cl)c3[nH]2)cc1` (centres unmarked) [Example 170, 4-(3-(4-((cyclopropylmethyl)sulfonyl)phenyl)-3-(5,7-dichloro-6-(4,4-difluoropiperidin-1-yl)-1H-benzo[d]imidazol-2-yl)propyl)morpholine], in that order: 0.71 µM and 0.43 µM.
Taken in the same sequence, the figures for `CC(C)Oc1ccccc1-c1cc2nc(C(CCO)c3ccc(S(=O)(=O)CC4CC4)cc3)[nH]c2cc1Cl` (centres unmarked) [Example 144, 3-(5-chloro-6-(2-isopropoxyphenyl)-1H-benzo[d]imidazol-2-yl)-3-(4-((cyclopropylmethyl)sulfonyl)phenyl)propan-1-ol] were 0.011 µM and 0.023 µM.
